We go through one compound from patent US7056913B2, “C8—linked pyrrolo[2,1-c][1,4]benzodiazepine-acridone/acridine hybrids” (Council of Scientific and Industrial Research, priority 2004, dated 2006).

The test system of data set [1] is MCF7 (Breast). Description: In vitro one dose primary anticancer assay. The class given is cell-based, human. The note with it: one dose at 10^−4 molar concentration. As for the experimental part: (§1) Cytotoxicity: 7-methoxy-8-[3′-(4″-acridonylcarboxamido)propyl]-oxy-(11aS)1,2,3,11a-tetrahydro-5H-pyrrolo[2,1-c][1,4]benzodiazepin-5-one of formula IV was evaluated for primary anti-cancer activity (Table 1) and in vitro against sixty human tumour cells derived from nine cancer types (leukemia, non-small-cell lung, colon, CNS, melanoma, ovarian, prostate, and breast cancer). For each compound, dose response curves for each cell line were measured at a minimum of five concentrations at 10 fold dilutions. A protocol of 48 h continuous drug expose was used and a sulforhodamine B (SRB) protein assay was used to estimate cell viability or growth. The concentration causing 50% cell growth inhibition (GI50), total cell growth inhibition (TGI, 0% growth) and 50% cell death (LC50, −50% growth) compared with the control was calculated.

The test system of data set [2] is NCI-H460 (Lung). The data set can be described thus: In vitro one dose primary anticancer assay. Format: cell-based, human. The conditions noted are these: one dose at 10^−4 molar concentration. On the procedure:
as §1

In data set [3] the test system is SF-268 (CNS). Description: In vitro one dose primary anticancer assay. Format: cell-based, human. The conditions noted are these: one dose at 10^−4 molar concentration. As for the experimental part:
as §1

The subject of data set [4] is sixty human tumour cells. Description: NCI in vitro cytotoxicity, SRB assay, mean graph midpoints. The note with it: 48 h continuous drug exposure. Format: cell-based. As for the experimental part:
as §1
Background: In SRB staining, fixed cells bind dye roughly in proportion to their protein.

The test system of data set [5] is Breast cancer cell lines. The data set can be described thus: NCI in vitro cytotoxicity, SRB assay, cancer type average. Format: cell-based, human. The conditions noted are these: average of six to nine cell lines. On the procedure: as §1
(§2) Each cancer type represents the average of six to nine different cancer cell lines.

Data set [6] concerns CNS cancer cell lines. The data set is described as above. Format: cell-based, human. The conditions noted are these: average of six to nine cell lines. On the procedure:
as §1, §2

Data set [7] has as its system Colon cancer cell lines. Described as above. Format: cell-based, human. The conditions noted are these: average of six to nine cell lines. As for the experimental part:
as §1, §2

Data set [8] has as its system Melanoma cancer cell lines. The description is as above. The note with it: average of six to nine cell lines. The class given is cell-based, human. On the procedure: as §1, §2
Data set [9] relates to Ovarian cancer cell lines. Described as above. The note with it: average of six to nine cell lines. The class given is cell-based, human. On the procedure:
as §1, §2

Data set [10] has as its system Renal cancer cell lines. The data set is described as above. The conditions noted are these: average of six to nine cell lines. The class given is cell-based, human. On the procedure:
as §1, §2

For data set [11], the system named is non-small-cell lung cancer cell lines. Described as above. Format: cell-based, human. The conditions noted are these: average of six to nine cell lines. On the procedure: as §1, §2
In data set [12] the test system is CNS cancer (SNB-75). The data set can be described thus: NCI in vitro cytotoxicity, SRB assay. Format: cell-based, human. The note with it: SNB-75 CNS; read-out: potency at the LC50 level. As for the experimental part: as §1
Data set [13] has as its system breast cancer (MDA-MB-435). The data set can be described thus: NCI in vitro cytotoxicity, SRB assay. The note with it: MDA-MB-435 breast; read-out: potency at the LC50 level. Format: cell-based, human. As for the experimental part:
as §1

The subject of data set [14] is colon cancer (HCC-2998). Description: NCI in vitro cytotoxicity, SRB assay. The note with it: HCC-2998 colon; read-out: potency at the LC50 level. The class given is cell-based, human. On the procedure: as §1
The test system of data set [15] is melanoma cancer (UACC-62). The data set can be described thus: NCI in vitro cytotoxicity, SRB assay. The conditions noted are these: UACC-62 melanoma; read-out: potency at the LC50 level. The class given is cell-based, human. As for the experimental part: as §1
Data set [16] deals with melanoma cancer cell line LOXIMVI. The data set can be described thus: NCI in vitro cytotoxicity, SRB assay. Format: cell-based, human. The note with it: read-out: potency at the LC50 level. As for the experimental part: as §1
The test system of data set [17] is melanoma cancer cell line M14. The data set can be described thus: NCI in vitro cytotoxicity, SRB assay. The note with it: read-out: potency at the LC50 level. Format: cell-based, human. On the procedure:
as §1

Data set [18] relates to renal cancer (SN12C). Description: NCI in vitro cytotoxicity, SRB assay. The class given is cell-based, human. The conditions noted are these: read-out: potency at the LC50 level. On the procedure: as §1

The LC50 is the concentration that kills 50% of the test population. On to `COc1cc2c(cc1OCCCNC(=O)c1cccc3c(=O)c4ccccc4[nH]c13)N=C[C@@H]1CCCN1C2=O` [Compound IV, 7-methoxy-8-[3′-(4″-acridonylcarboxamido)propyl]-oxy-(11aS)1,2,3,11a-tetrahydro-5H-pyrrolo[2,1-c][1,4]benzodiazepin-5-one], for which, in [1], the “Growth percentages (Breast) MCF7” value turned out to be 0%. Moreover, the “Growth percentages (Lung) NCI-H460” value in [2] is 0%. Further, the “Growth percentages (CNS) SF-268” value in data set [3] is reported as 10%. Also, in [4] (50% cell death), the “Log10 LC50 mean graph midpoint (MG_MID)” value is −4.32. Moreover, in [4] (50% cell growth inhibition), the “Log10 GI50 mean graph midpoint (MG_MID)” value is −7.73. Moreover, in [4] (total cell growth inhibition), the “Log10 TGI mean graph midpoint (MG_MID)” value is reported as −5.56. The “Log LC50 (concentration in mol/L causing 50% lethality)” value is listed as −4.40 mol/L in data set [5]; −4.425 mol/L in data set [6]; −4.33 mol/L in data set [7]; −5.09 mol/L in [8]; −4.012 log(mol/L) in [9]; −4.27 mol/L in data set [10]. For the same compound, in data set [11], the “Log LC50 (concentration in mol/L causing 50% lethality)” value is given as −4.14 log10(mol/L). For the same compound, the LC50 (concentration causing 50% cell death) in data set [12] is 100 nM; in data set [15], less than 10 nM; in data set [18], greater than 10000 nM. For the same compound, the CC50 in data set [13] is 100 nM; in [16], greater than 10000 nM. Besides, the LC50 (concentration killing 50% of cells) in data set [14] turned out to be 100 nM. The LC50 in data set [17] is greater than 10000 nM.
